The text below walks through data of publication PMC2932887 (Journal of medicinal chemistry, 2010).

By Vmax is commonly meant the rate approached at saturating substrate.

Like-named read-outs stand apart in the source and are kept apart here.

Test [1] deals with T1, recombinant rat NAAA (Rattus norvegicus, UniProt Q5KTC7).
T1 sequence (Q5KTC7 131-362 limits assumed): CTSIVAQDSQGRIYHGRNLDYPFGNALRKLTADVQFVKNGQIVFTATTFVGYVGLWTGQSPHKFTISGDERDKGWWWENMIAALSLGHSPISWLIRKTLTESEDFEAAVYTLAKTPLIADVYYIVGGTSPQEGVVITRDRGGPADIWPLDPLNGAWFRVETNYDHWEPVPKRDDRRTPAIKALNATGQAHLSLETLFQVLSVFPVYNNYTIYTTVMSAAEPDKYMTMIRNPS
T1 sequence (Q5KTC7 34-130 partner limits assumed): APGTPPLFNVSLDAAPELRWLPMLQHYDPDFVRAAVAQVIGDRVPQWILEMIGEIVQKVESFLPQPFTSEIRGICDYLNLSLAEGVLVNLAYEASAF
As to the kind of experiment: NAAA assay: inhibition of heptadecenoylethanolamide hydrolysis. In kind it is biochemical. To be noted: for NAAA inhibitory activity (in words): recombinant rat NAAA.

Another test deals with FAAH. To be noted: cited from earlier work.
Test [2] has as its system diacylglycerol lipase type-α. To be noted: cited from earlier work.
Test [3] concerns the target T1, recombinant rat NAAA. The following applies: intracellular NAAA activity; cited from earlier work.
In the next test the test system is monoacylglycerol lipase. To be noted: cited from earlier work.
Test [4] addresses T2, Recombinant NAAA expressed in HEK-293 Cells (Rattus norvegicus, UniProt Q5KTC7).
T2 sequence (Q5KTC7 131-362 limits assumed): T1 sequence (Q5KTC7 131-362 limits assumed)
T2 sequence (Q5KTC7 34-130 partner limits assumed): T1 sequence (Q5KTC7 34-130 partner limits assumed)
As to the kind of experiment: Michaelis-Menten analysis of NAAA in presence of inhibitor. In kind it is biochemical.

For the compound `O=C1OCC1CCCCc1ccccc1` (racemic) [compound 23, rac-3-(4-Phenylbutyl)oxetan-2-one], the “NAAA inhibitory activity (in words)” value on recombinant rat NAAA [1] is “low potency”.

On to `O=C(CCc1ccccc1)N[C@H]1COC1=O` [7a, (S)-N-(2-Oxo-3-oxetanyl)-3-phenylpropionamide], for which the “inhibition of FAAH” value in the test on FAAH was “no inhibition”. For the same compound, in test [2], the “inhibition of diacylglycerol lipase type-α” value was “no inhibition”. For the same compound, at recombinant rat NAAA [3], the “mechanism of NAAA inhibition” value was “non-competitive”. For the same compound, in the test with monoacylglycerol lipase, the “inhibition of monoacylglycerol lipase” value is on record as “no inhibition”.

Consider `O=C(N[C@H]1COC1=O)c1ccc(-c2ccccc2)cc1` [7h, (S)-N-(2-Oxo-3-oxetanyl)biphenyl-4-carboxamide], for which the “mechanism of NAAA inhibition” value at recombinant rat NAAA [1] (preincubation time-course, Michaelis-Menten analysis, overnight dialysis) is “rapid, noncompetitive and reversible”. Also, the Vmax in test [4] (100 nM inhibitor) came to 10.8 ± 2.5 nmol/min/mg; in test [4] (200 nM inhibitor), 6.2 ± 0.2 nmol/min/mg.

Regarding `O=C(CCc1ccccc1)N[C@H]1CCOC1=O` [11a, (S)-N-(2-Oxotetrahydrofuran-3-yl)-3-phenylpropionamide], the “NAAA inhibitory activity (in words)” value at recombinant rat NAAA [1] is listed as “entirely devoid of inhibitory activity”.

In the case of `O=C(N[C@H]1CCOC1=O)c1ccc2ccccc2c1` [11j, (S)-N-(2-Oxotetrahydrofuran-3-yl)-2-naphthamide], on recombinant rat NAAA [1], the “NAAA inhibitory activity (in words)” value is “inactivity”.

Regarding `C[C@H]1OC(=O)[C@H]1NC(=O)CCc1ccccc1` [20a, (2R,3S)-N-(2-Methyl-4-oxo-3-oxetanyl)-3-phenylpropionamide], the “NAAA inhibitory activity (in words)” value at recombinant rat NAAA [1] was “complete loss of activity”.

In the case of `O=C(CCc1ccccc1)N[C@@H](CO)C(=O)O` [compound 10, (S)-3-Hydroxy-2-(3-Phenylpropionylamino)propionic Acid], the “NAAA inhibitory activity (in words)” value at recombinant rat NAAA [1] is reported as “entirely devoid of inhibitory activity”.

Take `O=C(CCc1ccccc1)NC1CCC1` [compound 12, N-Cyclobutyl-3-phenylpropionamide]: at recombinant rat NAAA [1], the “NAAA inhibitory activity (in words)” value is “entirely devoid of inhibitory activity”.

Regarding `O=C(CCc1ccccc1)NC1CCC1=O` (centres unmarked) [compound 15, N-(2-Oxocyclobutyl)-3-phenylpropionamide], the “NAAA inhibitory activity (in words)” value at recombinant rat NAAA [1] is on record as “entirely devoid of inhibitory activity”.
